We go through 20 compounds from patent publication US12370192B2, “Azole-fused pyridazin-3(2H)-one derivatives” (TAKEDA PHARMACEUTICAL COMPANY LIMITED, priority 2019, dated 2025).

The target in assay [1] is T1, human GPR139 receptor (Homo sapiens, UniProt Q6DWJ6).
T1 construct: expressed in transfected cells; host or cells: T-REx-CHO (Thermo Fisher Scientific), doxycycline-induced
T1 sequence (Q6DWJ6 1-353): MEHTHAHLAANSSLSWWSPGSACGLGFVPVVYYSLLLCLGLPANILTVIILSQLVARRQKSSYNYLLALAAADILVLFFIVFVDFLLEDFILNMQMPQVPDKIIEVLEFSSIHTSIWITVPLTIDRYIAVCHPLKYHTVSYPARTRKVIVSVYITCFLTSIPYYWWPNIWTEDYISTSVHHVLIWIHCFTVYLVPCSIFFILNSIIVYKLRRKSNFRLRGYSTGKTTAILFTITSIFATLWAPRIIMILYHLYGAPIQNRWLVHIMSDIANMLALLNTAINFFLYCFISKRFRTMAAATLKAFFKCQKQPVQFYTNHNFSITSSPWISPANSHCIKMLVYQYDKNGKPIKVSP
Description: GPR139 Competition Binding (membrane-based, tritium-labeled ligand). To be noted: T-REx-CHO membranes with human GPR139; 6.5 nM tritium-labeled ligand; 11-point curve, 30 μM maximum concentration; read-out: GPR139 Binding Affinity (pKi) (converted). Put shortly:
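Membranes came from doxycycline-induced T-REx-CHO cells expressing human GPR139. They were incubated 20 min at room temperature with 6.5 nM tritiated ligand and compound (11 points, top 30 μM) in HEPES pH 7.3 buffer with MgCl2/CaCl2. Filter-bound counts gave Ki by four-parameter fit, reported as pKi.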

Assay [2] deals with T1, human GPR139 receptor. Briefly: Measurement of GPR139 Activation Via Calcium Signaling (FLIPR, T-REx-CHO cells). To be noted: T-REx-CHO cells stably expressing human GPR139, 11-point dose response, 10 μM maximum concentration, read-out: GPR139 Potency (pEC50) (converted). Type of assay: cell-based. Put shortly: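 Calcium flux read by FLIPR for 1 min after adding compounds (11 concentrations, maximum 10 μM) to doxycycline-induced (2 μg/mL, 17 h) T-REx-CHO cells expressing human GPR139. Cells dye-loaded 40 min at 37 °C in HBSS, 1 mM HEPES pH 7.4 with probenecid; activation reported as pEC50 from four-parameter logistic fit.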

`COc1ccc([C@H](C)NC(=O)Cn2ncc3c(c(C)nn3C3CC3)c2=O)cc1` [Example 110, (S)-2-(1-cyclopropyl-3-methyl-4-oxo-1,4-dihydro-5H-pyrazolo[3,4-d]pyridazin-5-yl)-N-(1-(4-methoxyphenyl)ethyl)acetamide]: on human GPR139 receptor [1], the Ki is 1.66 µM. Also, on human GPR139 receptor [2], the EC50 is 0.0692 µM.

For the compound `Cc1ccc([C@H](C)NC(=O)Cn2ncc3c(c(C)nn3C3CC3)c2=O)cc1F` [Example 130, (S)-2-(1-cyclopropyl-3-methyl-4-oxo-1,4-dihydro-5H-pyrazolo[3,4-d]pyridazin-5-yl)-N-(1-(3-fluoro-4-methylphenyl)ethyl)acetamide], the Ki at human GPR139 receptor [1] was 0.038 µM. In addition, the EC50 on human GPR139 receptor [2] is 0.0178 µM.

For `Cc1ccc([C@H](C)NC(=O)Cn2nc(C)c3c(cnn3C3CC3)c2=O)c(F)c1` [Example 81, (S)-2-(1-cyclopropyl-7-methyl-4-oxo-1,4-dihydro-5H-pyrazolo[3,4-d]pyridazin-5-yl)-N-(1-(2-fluoro-4-methylphenyl)ethyl)acetamide], at human GPR139 receptor [1], the Ki is 0.331 µM. Moreover, at human GPR139 receptor [2], the EC50 was 0.145 µM.

On to `Cc1ccc([C@H](C)NC(=O)Cn2nc(C)c3cnn(C(C)(C)C)c3c2=O)cc1` [Example 13, (S)-2-(1-(tert-butyl)-4-methyl-7-oxo-1,7-dihydro-6H-pyrazolo[3,4-d]pyridazin-6-yl)-N-(1-(p-tolyl)ethyl)acetamide], for which, on human GPR139 receptor [1], the Ki was 0.0209 µM. For the same compound, at human GPR139 receptor [2], the EC50 was 0.102 µM.

Regarding `Cc1ccc([C@H](C)NC(=O)Cn2ncc3c(c(C)nn3C3CC3)c2=O)c(F)c1` [Example 108, (S)-2-(1-cyclopropyl-3-methyl-4-oxo-1,4-dihydro-5H-pyrazolo[3,4-d]pyridazin-5-yl)-N-(1-(2-fluoro-4-methylphenyl)ethyl)acetamide], the Ki at human GPR139 receptor [1] is 0.0759 µM. In addition, the EC50 on human GPR139 receptor [2] is 0.0347 µM.

In the case of `Cc1ccc([C@H](C)NC(=O)Cn2ncc3c(cnn3C)c2=O)c(F)c1` [Example 35, (S)—N-(1-(2-fluoro-4-methylphenyl)ethyl)-2-(1-methyl-4-oxo-1,4-dihydro-5H-pyrazolo[3,4-d]pyridazin-5-yl)acetamide], on human GPR139 receptor [1], the Ki is 1.02 µM. Further, the EC50 at human GPR139 receptor [2] was 0.0794 µM.

Take `Cc1cc(Cl)ccc1[C@H](C)NC(=O)Cn1ncc2c(c(C)cn2C2CC2)c1=O` [Example 63, (S)—N-(1-(4-chloro-2-methylphenyl)ethyl)-2-(1-cyclopropyl-3-methyl-4-oxo-1,4-dihydro-5H-pyrrolo[2,3-d]pyridazin-5-yl)acetamide]: the Ki on human GPR139 receptor [1] was 0.002 µM. For the same compound, the EC50 at human GPR139 receptor [2] was 0.0851 µM.

With `[2H]C([2H])([2H])c1ccc([C@H](C)NC(=O)Cn2ncc3c(c(C)nn3C(C)C)c2=O)cc1` [Example 168, (S)-2-(1-isopropyl-3-methyl-4-oxo-1,4-dihydro-5H-pyrazolo[3,4-d]pyridazin-5-yl)-N-(1-(4-(Methyl-d3)phenyl)ethyl)acetamide], the Ki on human GPR139 receptor [1] is 0.38 µM. For the same compound, on human GPR139 receptor [2], the EC50 was 0.0437 µM.

Regarding `C[C@H](NC(=O)Cn1ncc2ncn(C)c2c1=O)c1ccc(C(F)(F)F)cc1` [Example 139, (S)-2-(3-methyl-4-oxo-3,4-dihydro-5H-imidazo[4,5-d]pyridazin-5-yl)-N-(1-(4-(trifluoromethyl)phenyl)ethyl)acetamide], the Ki on human GPR139 receptor [1] is 3.8 µM. Moreover, the EC50 on human GPR139 receptor [2] is 0.257 µM.

For the compound `Cc1nn(CC(=O)N[C@@H](C)c2ccc(C(F)(F)F)cn2)c(=O)c2c1c(C)nn2C(C)C` [Example 59, (S)-2-(1-isopropyl-3,4-dimethyl-7-oxo-1,7-dihydro-6H-pyrazolo[3,4-d]pyridazin-6-yl)-N-(1-(5-(trifluoromethyl)pyridin-2-yl)ethyl)acetamide], the Ki at human GPR139 receptor [1] was 0.741 µM. Besides, at human GPR139 receptor [2], the EC50 was 0.347 µM.

On to `COc1ccc([C@H](C)NC(=O)Cn2ncc3c(c(C)nn3C3CC3)c2=O)c(F)c1` [Example 127, (S)-2-(1-cyclopropyl-3-methyl-4-oxo-1,4-dihydro-5H-pyrazolo[3,4-d]pyridazin-5-yl)-N-(1-(2-fluoro-4-methoxyphenyl)ethyl)acetamide], for which, at human GPR139 receptor [1], the Ki was 0.933 µM. Besides, the EC50 on human GPR139 receptor [2] is 0.0257 µM.

For `Cc1ccc([C@H](C)NC(=O)Cn2nc(C)c3c(c(C)nn3C(C)C)c2=O)c(F)c1` [Example 54, (S)—N-(1-(2-fluoro-4-methylphenyl)ethyl)-2-(1-isopropyl-3,7-dimethyl-4-oxo-1,4-dihydro-5H-pyrazolo[3,4-d]pyridazin-5-yl)acetamide], the Ki on human GPR139 receptor [1] was 0.0871 µM. Also, the EC50 at human GPR139 receptor [2] was 0.107 µM.

In the case of `Cc1ccc([C@H](C)NC(=O)Cn2ncc3c(c(C4CC4)nn3C)c2=O)c(F)c1` [Example 124, (S)-2-(3-cyclopropyl-1-methyl-4-oxo-1,4-dihydro-5H-pyrazolo[3,4-d]pyridazin-5-yl)-N-(1-(2-fluoro-4-methylphenyl)ethyl)acetamide], the Ki on human GPR139 receptor [1] was 0.00708 µM. For the same compound, the EC50 at human GPR139 receptor [2] was 0.0603 µM.

Turning to `Cc1cn(C2CC2)c2cnn(CC(=O)N[C@@H](C)c3ccc(C(F)(F)F)cc3)c(=O)c12` [Example 144, (S)-2-(1-cyclopropyl-3-methyl-4-oxo-1,4-dihydro-5H-pyrrolo[2,3-d]pyridazin-5-yl)-N-(1-(4-(trifluoromethyl)phenyl)ethyl)acetamide], the Ki at human GPR139 receptor [1] is 0.02 µM. Moreover, at human GPR139 receptor [2], the EC50 is 0.0832 µM.

Regarding `Cc1nn(CC(=O)N[C@@H](C)c2ccc(C(F)(F)F)cc2)c(=O)c2cnn(C(C)C)c12` [Example 75, (S)-2-(1-isopropyl-7-methyl-4-oxo-1,4-dihydro-5H-pyrazolo[3,4-d]pyridazin-5-yl)-N-(1-(4-(trifluoromethyl)phenyl)ethyl)acetamide], the Ki on human GPR139 receptor [1] is 2.34 µM. In addition, the EC50 on human GPR139 receptor [2] is 0.617 µM.

On to `Cc1ccc(C)c([C@H](C)NC(=O)Cn2ncc3c(c(C)nn3C3CC3)c2=O)c1` [Example 26, (S)-2-(1-cyclopropyl-3-methyl-4-oxo-1,4-dihydro-5H-pyrazolo[3,4-d]pyridazin-5-yl)-N-(1-(2,5-dimethylphenyl)ethyl)acetamide], for which the Ki on human GPR139 receptor [1] is 38.9 µM. Also, the EC50 on human GPR139 receptor [2] is 0.933 µM.

As for `Cc1ccc([C@H](C)NC(=O)Cn2ncc3c(c(C)nn3C3CC3)c2=O)cc1` [Example 122, (S)-2-(1-cyclopropyl-3-methyl-4-oxo-1,4-dihydro-5H-pyrazolo[3,4-d]pyridazin-5-yl)-N-(1-(p-tolyl)ethyl)acetamide], the Ki at human GPR139 receptor [1] was 0.245 µM. The EC50 on human GPR139 receptor [2] is 0.0832 µM.

In the case of `Cc1nn(CC(=O)NC(C)c2ccc3c(c2)CCCO3)c(=O)c2c1c(C)nn2C1CC1` (stereo not shown) [Example 61, N-(1-(chroman-6-yl)ethyl)-2-(1-cyclopropyl-3,4-dimethyl-7-oxo-1,7-dihydro-6H-pyrazolo[3,4-d]pyridazin-6-yl)acetamide], at human GPR139 receptor [1], the Ki is 0.0417 µM. For the same compound, on human GPR139 receptor [2], the EC50 was 0.141 µM.

For the compound `Cc1ccc([C@H](C)NC(=O)Cn2ncc3c(c(C)nn3C)c2=O)c(F)c1` [Example 99], the Ki on human GPR139 receptor [1] is 0.0955 µM. The EC50 at human GPR139 receptor [2] is 0.123 µM.

With `Cc1ccc([C@H](C)NC(=O)Cn2nc(C)c3c(cnn3C3CC3)c2=O)cc1` [Example 80, (S)-2-(1-cyclopropyl-7-methyl-4-oxo-1,4-dihydro-5H-pyrazolo[3,4-d]pyridazin-5-yl)-N-(1-(p-tolyl)ethyl)acetamide], the Ki at human GPR139 receptor [1] was 1.66 µM. Further, the EC50 on human GPR139 receptor [2] is 0.251 µM.
